Reference: PubChem BioAssay (NCI)
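Method: 48-hour compound exposure of cells in 96-well plates, five concentrations, linear interpolation of endpoints. TGI denotes the concentration required for complete inhibition of growth.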

What was measured:
Test in all cases: NCI-60 cell line screen, 48 h
A498 renal = test system: A498 renal
ACHN renal = test system: ACHN renal
DU-145 prostate = test system: DU-145 prostate
IGROV1 ovarian = test system: IGROV1 ovarian
LOX IMVI melanoma = test system: LOX IMVI melanoma
MCF7 breast = test system: MCF7 breast
MDA-MB-435 = test system: MDA-MB-435
OVCAR-4 ovarian = test system: OVCAR-4 ovarian
SK-MEL-28 melanoma = test system: SK-MEL-28 melanoma
UACC-257 melanoma = test system: UACC-257 melanoma
DLD-1 colon = test system: DLD-1 colon
DMS 114 small cell lung = test system: DMS 114 small cell lung
DMS 273 small cell lung = test system: DMS 273 small cell lung
HOP-18 NSCLC = test system: HOP-18 NSCLC
KM20L2 colon = test system: KM20L2 colon
LXFL 529 NSCLC = test system: LXFL 529 NSCLC
M19-MEL melanoma = test system: M19-MEL melanoma
SNB-78 CNS = test system: SNB-78 CNS
XF 498 CNS = test system: XF 498 CNS

| SMILES | TGI (A498 renal) [µM] | TGI (ACHN renal) [µM] | TGI (DU-145 prostate) [µM] | TGI (IGROV1 ovarian) [µM] | TGI (LOX IMVI melanoma) [µM] | TGI (MCF7 breast) [µM] | TGI (MDA-MB-435) [µM] | TGI (OVCAR-4 ovarian) [µM] | TGI (SK-MEL-28 melanoma) [µM] | TGI (UACC-257 melanoma) [µM] | TGI (DLD-1 colon) [µM] | TGI (DMS 114 small cell lung) [µM] | TGI (DMS 273 small cell lung) [µM] | TGI (HOP-18 NSCLC) [µM] | TGI (KM20L2 colon) [µM] | TGI (LXFL 529 NSCLC) [µM] | TGI (M19-MEL melanoma) [µM] | TGI (SNB-78 CNS) [µM] | TGI (XF 498 CNS) [µM] |
| --- | --- | --- | --- | --- | --- | --- | --- | --- | --- | --- | --- | --- | --- | --- | --- | --- | --- | --- | --- |
| Cn1cc(C=C(C#N)C#N)c(=O)n(C)c1=O | > 100 | > 100 | > 100 | > 100 | > 100 | > 100 | > 100 | > 100 | > 100 | > 100 | – | – | – | – | – | – | – | – | – |
| O=c1cc2oc3ccc4ccccc4c3cc-2c(=O)[nH]1 | 31.8 | 32 | 27.6 | 27.4 | 21 | 38.5 | 25 | 48.5 | 32.7 | 30.6 | – | – | – | – | – | – | – | – | – |
| CC1(Br)C(=O)NC(=O)N([C@H]2C[C@H](O)[C@@H](CO)O2)C1N=[N+]=[N-] (some centres not stated) | > 100 | > 100 | – | > 100 | > 100 | – | – | > 100 | > 100 | > 100 | > 100 | > 100 | > 100 | > 100 | > 100 | > 100 | > 100 | > 100 | > 100 |
| COc1ccc(C(F)(F)F)cc1NC(=O)O/N=C(/Cl)C(C)C | 66.2 | 26.7 | 34.3 | 36.2 | 13.2 | > 55.9 | 48.1 | 35.8 | 48.5 | 42.5 | – | – | – | – | – | – | – | – | – |
| COc1ccc(C(=O)N=C2N(c3ccccc3)C(=Nc3ccccc3)C(=Nc3ccccc3)N2c2ccccc2)cc1 | 61.1 | > 100 | > 100 | > 100 | > 100 | > 100 | > 100 | 87.3 | > 66.6 | > 100 | – | – | – | – | – | – | – | – | – |
| CSc1ccc2c(cc1=O)C(NC(=O)c1cc(O)c(OC(=O)O)c(O)c1)CCc1cc(O)c(O)c(O)c1-2 (configuration not stated) | > 90 | > 90 | – | 37.7 | 24.8 | – | – | 40.9 | 56.2 | > 90 | 43.9 | 36 | 38.6 | > 90 | 83.2 | 36.9 | 27.4 | 81.6 | – |
| C[C@@H]1O[C@@H]2OCC[C@@H]2C2=C1C(=O)c1ccccc1C2=O | 32.4 | 28.6 | 21 | 10.8 | 5.65 | 2.81 | 3.69 | 16.4 | 51.5 | 24.5 | – | – | – | – | – | – | – | – | – |
| CCN(CC)CCNC(=O)c1ccccc1Nc1c(Cl)cccc1Cl | – | 31.3 | – | 36.1 | 24.3 | – | – | 30.2 | 33 | 29 | 24.7 | 24.8 | 30.6 | – | 7.27 | 30.5 | 30.2 | 33.1 | 16.5 |
| COc1cc(C(CN)N(C)C)cc(OC)c1OC (configuration not stated) | > 100 | > 100 | > 100 | > 100 | > 100 | > 100 | > 100 | > 100 | > 100 | > 100 | – | – | – | – | – | – | – | – | – |
| COc1cc([C@@H]2c3cc4c(cc3[C@@H](NC(=O)c3ccc(C(C)=O)cc3)C3COC(=O)[C@@H]32)OCO4)cc(OC)c1O (some centres not stated) | 5.87 | 1.75 | – | 5.71 | 4.68 | – | – | > 100 | 33.6 | 32.2 | 17.7 | 4.74 | 7.62 | > 100 | 8.05 | > 100 | 25.5 | 85 | 5.7 |
| COc1ccc(Oc2nc3cc(C(F)(F)F)ccc3nc2C(C)C)cc1 | 58.3 | 90.4 | > 100 | 82.7 | 30.5 | 39.5 | > 100 | > 100 | > 100 | 73.9 | – | – | – | – | – | – | – | – | – |
| COc1ccc(-n2c(C)nc3ccc(N=Cc4ccccc4)cc3c2=O)cc1 | > 100 | > 100 | > 100 | > 100 | > 100 | > 100 | > 100 | > 100 | > 100 | > 100 | – | – | – | – | – | – | – | – | – |
| CN1C(=O)c2cccc3c([N+](=O)[O-])ccc(c23)C1=O | 5.64 | 21.7 | – | 9.43 | 18.9 | – | – | 25.9 | 32.9 | 21.6 | 12.1 | 11.2 | 15.7 | 30.8 | 19.5 | 3.89 | 24.5 | 32 | – |
| C/C(=N/NC(=S)Nc1cccc(Cl)c1)c1cccc(/C(C)=N\NC(=S)Nc2cccc(Cl)c2)n1 | > 100 | 6.73 | > 73.1 | > 75.2 | > 38.5 | 8.94 | > 100 | > 100 | > 100 | 56 | – | – | – | – | – | – | – | – | – |
| Cc1nc(SCC(=O)Nc2ccccc2)c2sc(=S)n(-c3ccccc3)c2n1 | > 10 | > 10 | > 10 | > 10 | > 10 | > 10 | > 10 | > 10 | > 10 | > 10 | – | – | – | – | – | – | – | – | – |
| CCC(=O)NCC1(c2c[nH]c3ccccc23)SCCS1 | > 100 | > 100 | – | > 100 | > 100 | – | – | > 100 | > 100 | > 100 | > 100 | > 100 | > 100 | > 100 | > 100 | > 100 | > 100 | > 100 | > 100 |
| N#C/C(=C\N1CCNC1=S)C(=O)c1ccc2ccccc2c1 | > 100 | > 100 | > 100 | > 100 | > 100 | > 100 | > 100 | > 100 | > 100 | > 100 | – | – | – | – | – | – | – | – | – |
| OC(CCN1CCN(CCOC(c2ccc(F)cc2)c2ccc(F)cc2)CC1)c1ccccc1 (configuration not stated) | 19.5 | 25.8 | 32.8 | 27.1 | 28.2 | 35.6 | 38.9 | 39.4 | 35.7 | 42.5 | – | – | – | – | – | – | – | – | – |
